# Like-named read-outs stand apart in the source and are kept apart here.
# Key:
# [1] = test system: SW837 (Rectum) cell lines; assay: Cell proliferation assay and synergy analysis, Compound I with Adagrasib; conditions: Homo sapiens, SW837, 72 h, read-out: Ave of Inhibition (%)
# Description: (§4) The cell lines tested included: UM-UC-3 (bladder), KYSE-410 (HN/Esophagus), SW1463 (rectum), Calu-1 (Lung), NCI-H358 (Lung), SW837 (Rectum), SW756 (Cervix), NCI-H2122 (Lung), NCI-H1373 (Lung), NCI-H1792 (Lung), NCI-H23 (Lung), MIA PaCa-2 (Pancreas), and HCC44 (Lung).
# (§5) Cells were recovered and maintained in appropriate culture media. The cells were harvested respectively during the logarithmic growth period. The cells were then resuspended and counted using a Vi cell counter (The cell viability was measured by trypan blue exclusion assay). The cells were then diluted and 80 μL of the cell suspensions were added to 96-well plates according to plate map with final cell density. Two duplicate plates were set up. One is for day 0 reading (T0) and the other was cultured in the incubator for reading at the end point. The incubated plates were incubated overnight in humidified incubator at 37° C. with 5% CO2.
# (§6) At day 0, 20 μL of culture medium was added to each well for T0 reading. 10 μL of culture medium was added to each well for day 0 (T0) reading. Then, 50 μl of CellTiter-Glo® Reagent was added to each well. The contents were then mixed for 2 minutes on an orbital shaker to facilitate cell lysis. The plates were then allowed to incubate at room temperature for 10 minutes to stabilize luminescent signal. Luminescence was then recorded using an EnVision Multi Label Reader. […] The screening plates were then placed back into the incubator for the appropriate treatment time (3 days).
# (§7) For the endpoint CTG reading, 50 μL of CellTiter-Glo® Reagent was added to each well. The contents were then mixed for 2 minutes on an orbital shaker to facilitate cell lysis. The plate was allowed to incubate at room temperature for 10 minutes to stabilize luminescent signal. Luminescence was then recorded using an EnVision Multi Label Reader. The surviving rate (%)=(LumTest article−LumMedium control)/(LumNone treated−LumMedium control)×100%.
# (§8) A score higher than 5 indicates synergy, and a score less than −5 indicates antagonism.
# [2] = test system: SW756 (Cervix) cell lines; assay: as above; conditions: Homo sapiens, SW756, 72 h, read-out: Ave Inhibition (%)
# Description: as §4, §5, §6, §7, §8
# [3] = test system: SW1463 (rectum) cell lines; assay: as above; conditions: Homo sapiens, SW1463, 72 h, read-out: Ave Inhibition (%)
# Description: as §4, §5, §6, §7, §8
# [4] = test system: Calu-1 (Lung) cell lines; assay: as above; conditions: Homo sapiens, Calu-1, 72 h, read-out: Ave of Inhibition (%)
# Description: as §4, §5, §6, §7, §8
# [5] = test system: NCI-H358 (Lung) cell lines; assay: as above; conditions: Homo sapiens, NCI-H358, 72 h, read-out: Ave of Inhibition (%)
# Description: as §4, §5, §6, §7, §8
# [6] = biological target: T1, PI3K (Homo sapiens, UniProt P42336); assay: NanoBRET screening (binding assay) in transfected HEK293 cells; conditions: overnight incubation, washout
# T1 construct: expressed in transfected cells; host or cells: HEK293 (Gibco 293-H), transient transfection with FuGENE HD
# T1 sequence (P42336 whole entry): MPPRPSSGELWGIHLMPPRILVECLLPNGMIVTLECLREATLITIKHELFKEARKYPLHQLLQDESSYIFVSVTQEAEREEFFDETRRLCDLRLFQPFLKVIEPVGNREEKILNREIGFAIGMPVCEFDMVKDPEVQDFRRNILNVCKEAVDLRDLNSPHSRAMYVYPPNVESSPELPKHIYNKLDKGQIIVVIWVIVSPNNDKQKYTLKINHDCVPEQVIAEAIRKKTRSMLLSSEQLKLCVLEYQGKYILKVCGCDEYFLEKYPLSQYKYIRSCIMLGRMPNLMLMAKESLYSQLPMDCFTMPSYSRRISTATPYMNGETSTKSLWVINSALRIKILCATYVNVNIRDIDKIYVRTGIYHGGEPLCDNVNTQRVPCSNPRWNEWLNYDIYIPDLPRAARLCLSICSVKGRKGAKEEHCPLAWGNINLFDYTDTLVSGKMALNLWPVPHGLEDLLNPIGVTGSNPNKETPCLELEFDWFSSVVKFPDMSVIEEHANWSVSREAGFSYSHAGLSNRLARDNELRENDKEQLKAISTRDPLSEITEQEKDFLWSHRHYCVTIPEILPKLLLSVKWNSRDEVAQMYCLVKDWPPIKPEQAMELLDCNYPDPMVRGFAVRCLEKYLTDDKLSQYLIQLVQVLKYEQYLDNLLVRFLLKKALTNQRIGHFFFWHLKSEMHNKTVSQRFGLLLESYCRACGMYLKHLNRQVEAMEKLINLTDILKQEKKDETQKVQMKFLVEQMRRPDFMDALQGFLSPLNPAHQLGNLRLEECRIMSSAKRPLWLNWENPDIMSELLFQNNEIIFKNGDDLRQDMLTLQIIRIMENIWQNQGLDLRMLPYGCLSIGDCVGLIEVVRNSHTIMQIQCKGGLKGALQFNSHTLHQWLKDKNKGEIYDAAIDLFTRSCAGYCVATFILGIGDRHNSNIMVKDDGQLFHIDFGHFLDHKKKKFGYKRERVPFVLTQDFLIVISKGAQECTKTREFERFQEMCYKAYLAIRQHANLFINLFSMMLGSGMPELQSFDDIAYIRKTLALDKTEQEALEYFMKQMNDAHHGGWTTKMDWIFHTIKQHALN
# T1 sequence (P27986 whole entry partner): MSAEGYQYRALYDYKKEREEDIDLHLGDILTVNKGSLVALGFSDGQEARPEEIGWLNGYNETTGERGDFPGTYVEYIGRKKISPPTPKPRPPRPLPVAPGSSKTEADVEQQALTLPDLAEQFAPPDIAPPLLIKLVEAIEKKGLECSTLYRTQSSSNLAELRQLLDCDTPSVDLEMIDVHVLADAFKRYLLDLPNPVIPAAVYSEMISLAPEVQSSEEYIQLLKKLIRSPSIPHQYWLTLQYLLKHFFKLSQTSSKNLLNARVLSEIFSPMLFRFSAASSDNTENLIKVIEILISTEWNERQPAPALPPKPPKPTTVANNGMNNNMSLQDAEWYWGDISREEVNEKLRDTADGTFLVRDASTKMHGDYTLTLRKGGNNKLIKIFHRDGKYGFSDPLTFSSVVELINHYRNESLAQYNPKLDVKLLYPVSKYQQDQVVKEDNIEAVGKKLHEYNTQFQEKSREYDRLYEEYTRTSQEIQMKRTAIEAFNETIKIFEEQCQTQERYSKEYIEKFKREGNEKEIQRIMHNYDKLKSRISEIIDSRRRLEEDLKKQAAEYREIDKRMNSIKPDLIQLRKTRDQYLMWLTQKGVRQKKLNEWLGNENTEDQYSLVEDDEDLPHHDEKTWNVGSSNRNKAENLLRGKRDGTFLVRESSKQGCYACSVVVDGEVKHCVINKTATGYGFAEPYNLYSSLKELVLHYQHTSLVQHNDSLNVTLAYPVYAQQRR
# Description: Human embryonic kidney 293-H (HEK 293, Gibco 293-H, #11631017) cell lines were maintained in Dulbecco's Modified Eagle Medium, high glucose, pyruvate (DMEM, Gibco, #11995065) supplemented with 10% fetal bovine serum (FBS, Gibco, #10082147) and 1× penicillin-streptomycin (100× solution, Gibco, #15140148) at 37° C. and 5% CO2 in a water-saturated incubator. […] Opti-MEM media supplemented with 10% fetal bovine serum (Opti-MEM I reduced serum media, no phenol red, Gibco, #11058021) was used for culturing cells overnight for NanoBRET readout experiments.
# HEK293 cells were cultivated appropriately prior to assay. The medium from cell flask was removed via aspiration, washed 1× with PBS followed by aspiration, trypsinized, and cells were allowed to dissociate from the flask. Trypsin was neutralized using growth medium and cells were pelleted via centrifugation at 200×g for 5 minutes. The medium was aspirated and the cells were resuspended into a single cell suspension using Opti-MEM I supplemented with 10% FBS. The cell density was adjusted to 2×10^5/mL in Opti-MEM I supplemented with 10% FBS in a sterile, conical tube. […]
# A 10 μg/mL solution of DNA was prepared in Opti-MEM without serum. […] The plate on plate reader is read every hour for the next 6 hours.
# [7] = test system: NCI-H1792 (Lung); assay: Cell proliferation assay (CellTiter-Glo, 3 days), single agent; assay type: cell-based
# Description: (§1) Two duplicate plates were set up.
# (§2) At day 0, 10 μL culture medium to each well for T0 reading. […] Compound I was diluted and 10 μL of each 10× compound I from working solutions for a concentration ranging from 10 μM to about 0.005 μM. Cisplatin was diluted to about 3.33 mM to about 150 nM.
# (§3) IC50's were determined for each cell line.
# [8] = test system: MIA PaCa-2 (Pancreas); assay: as above; assay type: cell-based
# Description: as §1, §2, §3
# [9] = test system: NCI-H2122 (Lung); assay: as above; assay type: cell-based
# Description: as §1, §2, §3
# [10] = test system: NCI-H23 (Lung); assay: as above; assay type: cell-based
# Description: as §1, §2, §3
# [11] = test system: NCI-H1373 (Lung); assay: as above; assay type: cell-based
# Description: as §1, §2, §3
# [12] = test system: NCI-H358 (Lung); assay: as above; assay type: cell-based; conditions: 3 days treatment
# Description: as §1, §2, §3
# [13] = test system: UM-UC-3 (bladder); assay: as above; assay type: cell-based
# Description: as §1, §2, §3
# [14] = test system: Calu-1 (Lung); assay: as above; assay type: cell-based
# Description: as §1, §2, §3
# [15] = test system: SW837 (Rectum); assay: as above; assay type: cell-based
# Description: as §1, §2, §3
# [16] = test system: HCC44 (Lung); assay: as above; assay type: cell-based
# Description: as §1, §2, §3
# [17] = test system: UM-UC-3 (bladder) cell lines; assay: Cell proliferation assay and synergy analysis, Compound I with Adagrasib; conditions: Homo sapiens, UMUC3, 72 h, read-out: Ave Inhibition rate (%)
# Description: as §4, §5, §6, §7, §8
# [18] = test system: KYSE-410 (HN/Esophagus) cell lines; assay: as above; conditions: Homo sapiens, KYSE-410, 72 h, read-out: Ave inhibition (%)
# Description: as §4, §5, §6, §7, §8
# [19] = test system: SW756 (Cervix); assay: Cell proliferation assay (CellTiter-Glo, 3 days), single agent; assay type: cell-based; conditions: 3 days treatment; read-out: Absolute IC50
# Description: as §1, §2, §3
# [20] = test system: KYSE-410 (HN/Esophagus); assay: as above; assay type: cell-based; conditions: 3 days treatment; read-out: Absolute IC50
# Description: as §1, §2, §3
# [21] = test system: SW1463 (rectum); assay: as above; assay type: cell-based; conditions: 3 days treatment; read-out: Absolute IC50
# Description: as §1, §2, §3
# [22] = Homo sapiens, NCI-H1792, read-out: Average Inhibition (%) (N = 3)
# [23] = Homo sapiens, MIA PaCa-2, read-out: Average Inhibition (%) (N = 3)
# [24] = Homo sapiens, NCI-H2122, read-out: Average Inhibition (%) (N = 3)
# [25] = Homo sapiens, NCI-H23, read-out: Average Inhibition (%) (N = 3)
# [26] = Homo sapiens, NCI-H1373, read-out: Average Inhibition (%) (N = 3)
# [27] = Homo sapiens, HCC44, read-out: Average Inhibition (%) (N = 3)
# [28] = 3 days treatment, read-out: Absolute IC50
structure (smiles),measurement,setting,value
"C=CC(=O)NCC(=O)N1CCN(Cc2cc3c(N4CCOCC4)nc(-c4cnc(NC(=O)OC)cc4C(F)(F)F)nn3c2)CC1 [Compound I, methyl (5-(6-((4-(acryloylglycyl)piperazin-1-yl)methyl)-4-morpholinopyrrolo[2,1-f][1,2,4]triazin-2-yl)-4-(trifluoromethyl)pyridin-2-yl)carbamate]",inhibition at 0.0046 µM,[1],-3.3%
same,inhibition at 0.0137 µM,[1],-0.64%
same,inhibition at 0.0412 µM,[1],8.04%
same,inhibition at 0.1235 µM,[1],9.71%
same,inhibition at 0.3704 µM,[1],15.9%
same,inhibition at 1.1111 µM,[1],19%
same,inhibition at 3.3333 µM,[1],21.8%
same,inhibition at 10 µM,[1],27.5%
same,inhibition at 0.0046 µM,[2],-1.03%
same,inhibition at 0.0137 µM,[2],-0.86%
same,inhibition at 0.0412 µM,[2],1.55%
same,inhibition at 0.1235 µM,[2],4.83%
same,inhibition at 0.3704 µM,[2],8.26%
same,inhibition at 1.1111 µM,[2],14.3%
same,inhibition at 3.3333 µM,[2],21.6%
same,inhibition at 10 µM,[2],34.6%
same,inhibition at 0.0046 µM,[3],4.57%
same,inhibition at 0.0137 µM,[3],2.64%
same,inhibition at 0.0412 µM,[3],6.01%
same,inhibition at 0.1235 µM,[3],15.7%
same,inhibition at 0.3704 µM,[3],21.8%
same,inhibition at 1.1111 µM,[3],29.5%
same,inhibition at 3.3333 µM,[3],40.4%
same,inhibition at 10 µM,[3],48.4%
same,inhibition at 0.0046 µM,[4],-8.39%
same,inhibition at 0.0137 µM,[4],-5.3%
same,inhibition at 0.0412 µM,[4],-3.3%
same,inhibition at 0.1235 µM,[4],-0.27%
same,inhibition at 0.3704 µM,[4],3.9%
same,inhibition at 1.1111 µM,[4],31%
same,inhibition at 3.3333 µM,[4],11.6%
same,inhibition at 10 µM,[4],22.6%
same,inhibition at 0.0046 µM,[5],0.76%
same,inhibition at 0.0137 µM,[5],4.1%
same,inhibition at 0.0412 µM,[5],10.8%
same,inhibition at 0.1235 µM,[5],17.1%
same,inhibition at 0.3704 µM,[5],25%
same,inhibition at 1.1111 µM,[5],38.9%
same,inhibition at 3.3333 µM,[5],50.4%
same,inhibition at 10 µM,[5],61%
same,inhibition of the PI3K target,[6],greater than 80%
same,IC50,"[7]; Homo sapiens, NCI-H1792, 72 h, read-out: Absolute IC50 (μM)",> 10 µM
same,inhibition at 0.0046 µM,[7]; [22],-7.35%
same,inhibition at 0.0137 µM,[7]; [22],-1.4%
same,inhibition at 0.0412 µM,[7]; [22],2.27%
same,inhibition at 0.1235 µM,[7]; [22],6.64%
same,inhibition at 0.3704 µM,[7]; [22],7.05%
same,inhibition at 1.1111 µM,[7]; [22],12.2%
same,inhibition at 3.3333 µM,[7]; [22],22.4%
same,inhibition at 10 µM,[7]; [22],34%
same,IC50,"[8]; Homo sapiens, MIA PaCa-2, 72 h, read-out: Absolute IC50 (μM)",> 10 µM
same,inhibition at 0.0046 µM,[8]; [23],-5.76%
same,inhibition at 0.0137 µM,[8]; [23],-10.3%
same,inhibition at 0.0412 µM,[8]; [23],-8.58%
same,inhibition at 0.1235 µM,[8]; [23],-9.5%
same,inhibition at 0.3704 µM,[8]; [23],-5.32%
same,inhibition at 1.1111 µM,[8]; [23],1.46%
same,inhibition at 3.3333 µM,[8]; [23],13.9%
same,inhibition at 10 µM,[8]; [23],30.6%
same,inhibition at 0.0046 µM,[9]; [24],-2.13%
same,inhibition at 0.0137 µM,[9]; [24],2.34%
same,inhibition at 0.0412 µM,[9]; [24],13.6%
same,inhibition at 0.1235 µM,[9]; [24],24%
same,inhibition at 0.3704 µM,[9]; [24],36.5%
same,inhibition at 1.1111 µM,[9]; [24],45.6%
same,inhibition at 3.3333 µM,[9]; [24],52.5%
same,inhibition at 10 µM,[9]; [24],63.2%
same,IC50,"[10]; Homo sapiens, NCI-H23, 72 h, read-out: Absolute IC50 (μM)",> 10 µM
same,inhibition at 0.0046 µM,[10]; [25],6.06%
same,inhibition at 0.0137 µM,[10]; [25],7.11%
same,inhibition at 0.0412 µM,[10]; [25],12.1%
same,inhibition at 0.1235 µM,[10]; [25],15.4%
same,inhibition at 0.3704 µM,[10]; [25],14.9%
same,inhibition at 1.1111 µM,[10]; [25],23.4%
same,inhibition at 3.3333 µM,[10]; [25],28.6%
same,inhibition at 10 µM,[10]; [25],37.2%
same,IC50,"[11]; Homo sapiens, NCI-H1373, 72 h, read-out: Absolute IC50 (μM)",> 10 µM
same,inhibition at 0.0046 µM,[11]; [26],-3.29%
same,inhibition at 0.0137 µM,[11]; [26],-6.68%
same,inhibition at 0.0412 µM,[11]; [26],-5.53%
same,inhibition at 0.1235 µM,[11]; [26],-6.17%
same,inhibition at 0.3704 µM,[11]; [26],-5.69%
same,inhibition at 1.1111 µM,[11]; [26],-4.7%
same,inhibition at 3.3333 µM,[11]; [26],-9.75%
same,inhibition at 10 µM,[11]; [26],8.28%
same,inhibitory effect on cell proliferation (in words),[12],substantial inhibitory effect
same,IC50,"[13]; Homo sapiens, UMUC3, 72 h, read-out: Absolute IC50 (μM)",> 10 µM
same,IC50,"[14]; Homo sapiens, Calu-1, 72 h, read-out: Absolute IC50 (μM)",> 10 µM
same,IC50,"[15]; Homo sapiens, SW837, 72 h, read-out: Absolute IC50 (μM)",> 10 µM
same,inhibition at 0.0046 µM,[16]; [27],-3.82%
same,inhibition at 0.0137 µM,[16]; [27],-4.27%
same,inhibition at 0.0412 µM,[16]; [27],-1.38%
same,inhibition at 0.1235 µM,[16]; [27],1.74%
same,inhibition at 0.3704 µM,[16]; [27],10.1%
same,inhibition at 1.1111 µM,[16]; [27],19.7%
same,inhibition at 3.3333 µM,[16]; [27],33.1%
same,inhibition at 10 µM,[16]; [27],43.7%
same,inhibition at 0.0046 µM,[17],-5.05%
same,inhibition at 0.0137 µM,[17],-5.07%
same,inhibition at 0.0412 µM,[17],-7.94%
same,inhibition at 0.1235 µM,[17],-4.04%
same,inhibition at 0.3704 µM,[17],0.18%
same,inhibition at 1.1111 µM,[17],9.37%
same,inhibition at 3.3333 µM,[17],27.4%
same,inhibition at 10 µM,[17],44.8%
same,inhibition at 0.0046 µM,[18],-1.36%
same,inhibition at 0.0137 µM,[18],3.14%
same,inhibition at 0.0412 µM,[18],9.47%
same,inhibition at 0.1235 µM,[18],17.1%
same,inhibition at 0.3704 µM,[18],29.4%
same,inhibition at 1.1111 µM,[18],50.5%
same,inhibition at 3.3333 µM,[18],65.8%
same,inhibition at 10 µM,[18],71.3%
"N.N.[Cl][Pt][Cl] [Cisplatin, reference compound]",IC50,[19],10.3 µM
same,IC50,[7]; [28],4.88 µM
same,IC50,[8]; [28],7.03 µM
same,IC50,[9]; [28],17.8 µM
same,IC50,[10]; [28],3.58 µM
same,IC50,[20],15.8 µM
same,IC50,[11]; [28],8.72 µM
same,IC50,[21],12.2 µM
same,IC50,[12]; read-out: Absolute IC50,12.5 µM
same,IC50,[13]; [28],1.86 µM
same,IC50,[14]; [28],10.2 µM
same,IC50,[15]; [28],42.5 µM
same,IC50,[16]; [28],7.96 µM
